In patent publication US11331299B2, “Medicinal use of serrulatane diterpenes” (The University of Sydney, priority 2016, dated 2022):
Where two headings read alike, the source gives them in different places.

Tested on: 280 human cancer cell lines
Experiment: OncoPanel cell proliferation assay (10-day)
Assay type: cell-based
Details: Homo sapiens; for IC50: read-out: Cell Count IC50; for EC50: read-out: Cell Count EC50
[1] = SW872, SW872, Soft Tissue - Sarcoma
[2] = SW 954, SW954, Female GU - Vulva
[3] = SW982, SW982, Soft Tissue - Sarcoma
[4] = SW1353, SW1353, Soft Tissue - Osteosarcoma
[5] = TE 125.T, Soft Tissue - Sarcoma
[6] = TE 381.T, Soft Tissue - Sarcoma
[7] = U2OS, Soft Tissue - Osteosarcoma
[8] = U-118-MG, U-118 MG, CNS - Glioma
[9] = VA-ES-BJ, Soft Tissue - Sarcoma
[10] = WM 266-4, WM-266-4, Skin (Melanoma)

CC(C)=CCC[C@@H]1C(O)Oc2c(C)cc(O)c3c2[C@H]1CC[C@H]3C (some centres unmarked) [Compound 2, 5,18-epoxyserrulat-14-en-8,18-diol]
IC50 (SW837, SW837, Colon): > 30 µM
EC50 [1]: 4.46 µM
GI50 (SW872, SW872, Soft Tissue - Sarcoma, read-out: Cell Count GI50): 4.45 µM
IC50 [1]: 4.46 µM
EC50 (SW900, SW900, Lung - SCLC): 26.6 µM
GI50 (SW900, SW900, Lung - SCLC, read-out: Cell Count GI50): 26.7 µM
IC50 (SW900, SW900, Lung - SCLC): 26.8 µM
EC50 (SW948, SW948, Colon): 14.7 µM
GI50 (SW948, SW948, Colon, read-out: Cell Count GI50): 14.5 µM
IC50 (SW948, SW948, Colon): 14.7 µM
EC50 [2]: > 30 µM
GI50 (SW 954, SW954, Female GU - Vulva, read-out: Cell Count GI50): > 30 µM
IC50 [2]: > 30 µM
EC50 [3]: 7.63 µM
GI50 (SW982, SW982, Soft Tissue - Sarcoma, read-out: Cell Count GI50): 7.53 µM
IC50 [3]: 7.63 µM
EC50 (SW1088, SW1088, CNS - Glioma): 10.7 µM
GI50 (SW1088, SW1088, CNS - Glioma, read-out: Cell Count GI50): 10.5 µM
IC50 (SW1088, SW1088, CNS - Glioma): 10.7 µM
EC50 [4]: 9.49 µM
GI50 (SW1353, SW1353, Soft Tissue - Osteosarcoma, read-out: Cell Count GI50): 9.46 µM
IC50 [4]: 9.49 µM
EC50 (SW1417, SW1417, Colon): 22.8 µM
GI50 (SW1417, SW1417, Colon, read-out: Cell Count GI50): 21.8 µM
IC50 (SW1417, SW1417, Colon): 22.8 µM
EC50 (SW1463, SW1463, Colon): > 30 µM
GI50 (SW1463, SW1463, Colon, read-out: Cell Count GI50): > 30 µM
IC50 (SW1463, SW1463, Colon): > 30 µM
EC50 (SW1783, SW1783, CNS - Glioma): 10.2 µM
GI50 (SW1783, SW1783, CNS - Glioma, read-out: Cell Count GI50): 10.5 µM
IC50 (SW1783, SW1783, CNS - Glioma): 11 µM
EC50 (SW-403, SW403, Colon): > 30 µM
GI50 (SW-403, SW403, Colon, read-out: Cell Count GI50): > 30 µM
IC50 (SW-403, SW403, Colon): > 30 µM
EC50 (SW-620, SW620, Colon): 13.2 µM
GI50 (SW-620, SW620, Colon, read-out: Cell Count GI50): 13.2 µM
IC50 (SW-620, SW620, Colon): 13.2 µM
EC50 (SiHa, Female GU - Cervix): 28.3 µM
GI50 (SiHa, Female GU - Cervix, read-out: Cell Count GI50): 25.8 µM
IC50 (SiHa, Female GU - Cervix): 28.3 µM
EC50 (T24, Bladder): 20.4 µM
GI50 (T24, Bladder, read-out: Cell Count GI50): 20.3 µM
IC50 (T24, Bladder): 20.4 µM
EC50 (T47D, Breast): 10.2 µM
GI50 (T47D, Breast, read-out: Cell Count GI50): 9.4 µM
IC50 (T47D, Breast): 10.2 µM
EC50 (T98G, CNS - Glioma): 19.1 µM
GI50 (T98G, CNS - Glioma, read-out: Cell Count GI50): 19 µM
IC50 (T98G, CNS - Glioma): 19.1 µM
EC50 (TCC-SUP, TCCSUP, Bladder): 8.2 µM
GI50 (TCC-SUP, TCCSUP, Bladder, read-out: Cell Count GI50): 7.78 µM
IC50 (TCC-SUP, TCCSUP, Bladder): 8.2 µM
EC50 [5]: > 30 µM
GI50 (TE 125.T, Soft Tissue - Sarcoma, read-out: Cell Count GI50): 28.7 µM
IC50 [5]: > 30 µM
EC50 [6]: 8.14 µM
GI50 (TE 381.T, Soft Tissue - Sarcoma, read-out: Cell Count GI50): 7.99 µM
IC50 [6]: 8.14 µM
EC50 (TF-1, Leukemia): 2.75 µM
GI50 (TF-1, Leukemia, read-out: Cell Count GI50): 2.44 µM
IC50 (TF-1, Leukemia): 2.75 µM
EC50 (THP-1, Thp1, Leukemia): 5.32 µM
GI50 (THP-1, Thp1, Leukemia, read-out: Cell Count GI50): 5.61 µM
IC50 (THP-1, Thp1, Leukemia): 5.69 µM
EC50 (TUR, Lymphoma): 2.63 µM
GI50 (TUR, Lymphoma, read-out: Cell Count GI50): > 30 µM
IC50 (TUR, Lymphoma): > 30 µM
EC50 [7]: 12.7 µM
GI50 (U2OS, Soft Tissue - Osteosarcoma, read-out: Cell Count GI50): 12.7 µM
IC50 [7]: 12.7 µM
EC50 (U138-MG, U-138MG, CNS - Glioma): > 30 µM
GI50 (U138-MG, U-138MG, CNS - Glioma, read-out: Cell Count GI50): > 30 µM
IC50 (U138-MG, U-138MG, CNS - Glioma): > 30 µM
EC50 (U266B1, Myeloma): 9.15 µM
GI50 (U266B1, Myeloma, read-out: Cell Count GI50): 9.01 µM
IC50 (U266B1, Myeloma): 9.28 µM
EC50 (U-87 MG, CNS - Glioma): > 30 µM
GI50 (U-87 MG, CNS - Glioma, read-out: Cell Count GI50): > 30 µM
IC50 (U-87 MG, CNS - Glioma): > 30 µM
EC50 [8]: 29.6 µM
GI50 (U-118-MG, U-118 MG, CNS - Glioma, read-out: Cell Count GI50): 29.4 µM
IC50 [8]: 29.6 µM
EC50 (UMUC3, UM-UC-3, Bladder): 5.3 µM
GI50 (UMUC3, UM-UC-3, Bladder, read-out: Cell Count GI50): 5.74 µM
IC50 (UMUC3, UM-UC-3, Bladder): 5.75 µM
EC50 [9]: > 30 µM
GI50 (VA-ES-BJ, Soft Tissue - Sarcoma, read-out: Cell Count GI50): > 30 µM
IC50 [9]: > 30 µM
EC50 [10]: 6.39 µM
GI50 (WM 266-4, WM-266-4, Skin (Melanoma), read-out: Cell Count GI50): 6.25 µM
IC50 [10]: 6.39 µM
EC50 (WiDr, Colon): 14.5 µM
GI50 (WiDr, Colon, read-out: Cell Count GI50): 14.4 µM
IC50 (WiDr, Colon): 14.5 µM
EC50 (Y79, Eye): 6.57 µM
GI50 (Y79, Eye, read-out: Cell Count GI50): 7.41 µM
IC50 (Y79, Eye): 7.65 µM
EC50 (YAPC, Pancreas): 13 µM
GI50 (YAPC, Pancreas, read-out: Cell Count GI50): 12.9 µM
IC50 (YAPC, Pancreas): 13 µM
GI50 (strong: J-RT3-T3-5, Jurkat, MOLT-3, NALM-6, TF-1, RPMI8226, SKO-007, RD, read-out: GI50): 1 to 2.96 µM
